Literature values, collected in US20220354770A1, “METHOD FOR DYEING KERATINOUS MATERIAL BY MEANS OF A PREMIX OF AMINOSILICONE AND A CHROMOPHORIC COMPOUND” (Henkel AG & Co. KGaA, priority 2019, published 2022).

Conditions: 25° C.

Compound	solubility in water
O=S(=O)([O-])c1ccc(N=Nc2c(O)ccc3ccccc23)cc1.[Na+] [Acid Orange 7, sodium salt of 4-[(2-hydroxy-1-naphthyl)azo]benzene sulphonate]	more than 7 g/L
Nc1cc(S(=O)(=O)[O-])cc2cc(S(=O)(=O)[O-])c(N=Nc3ccccc3)c(O)c12.[Na+].[Na+] [Acid Red 33, diantrium salt of 5-amino-4-hydroxy-3-(phenylazo)-naphthalene-2,7-disulphonate]	2500 µg/mL
O=C([O-])c1c(Cl)c(Cl)c(Cl)c(Cl)c1-c1c2c(Br)cc(=O)c(Br)c-2oc2c(Br)c(O)cc(Br)c12.O=C([O-])c1c(Cl)c(Cl)c(Cl)c(Cl)c1-c1c2c(Br)cc(=O)c(Br)c-2oc2c(Br)c(O)cc(Br)c12.[Na+].[Na+] [Acid Red 92, disodium salt of 3,4,5,6-tetrachloro-2-(1,4,5,8-tetrabromo-6-hydroxy-3-oxoxanthen-9-yl)benzoic acid]	greater than 10 g/L
O=C([O-])C1=NN(c2ccc(S(=O)(=O)[O-])cc2)C(=O)C1N=Nc1ccc(S(=O)(=O)[O-])cc1.[Na+].[Na+].[Na+] (stereo not shown) [Acid Yellow 23, trisodium salt of 4,5-dihydro-5-oxo-1-(4-sulfophenyl)-4-((4-sulfophenyl)azo)-1H-pyrazole-3-carboxylic acid]	highly soluble
